# Where two headings read alike, the source gives them in different places.
# Assays:
# Assay in all cases: microbe, parasite or virus in culture
# P. aeruginosa PA01 (Si) = format: cell-based; details: P. aeruginosa PA01 (Si), not typical ESKAPEE strain
# Text: Supplement 41522_2025_837_MOESM13_ESM.xlsx, sheet "Table_S13_ESKAPEE-MIC" | column: Bacterial MIC (µg/mL)
# P. aeruginosa PA01 = format: cell-based; details: Pseudomonas aeruginosa
# In short: (§1)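 Broth microdilution in cation-adjusted Mueller-Hinton broth, final inoculum 1 × 10⁵ CFU/mL, peptides 0.25 to 128 μg/mL in 0.02% TFA + 0.04% BSA. Duplicates incubated 20 h at 37 °C without agitation. MIC read visually per CLSI with image-analysis support.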
# E. faecium ATCC 49224 = details: Enterococcus faecium
# In short: as §1
# [1] = test system: K. pneumoniae ATCC 700603; details: Klebsiella pneumoniae
# In short: as §1
# P. aeruginosa ATCC 27853 = details: Pseudomonas aeruginosa
# In short: as §1
# K. pneumoniae ATCC 13883 = details: Klebsiella pneumoniae
# In short: as §1
# S. aureus ATCC 25923 = details: for Bacterial MIC: S. aureus 25923; for MIC: Staphylococcus aureus
# In short: as §1
# S. aureus ATCC 43300 = details: for Bacterial MIC: S. aureus 43300; for MIC: Staphylococcus aureus
# In short: as §1
# P. aeruginosa MRSN 5519 = details: Pseudomonas aeruginosa
# In short: as §1
# E. faecium ATCC 19434 = details: Enterococcus faecium
# In short: as §1
# A. baumannii ATCC 19606 = details: Acinetobacter baumannii
# In short: as §1
# E. coli ATCC 35218 = details: for Bacterial MIC: E. coli 35218; for MIC: Escherichia coli
# In short: as §1
smiles,measurement,setting,value
"C[C@H]1COc2c(N3CCN(C)CC3)c(F)cc3c(=O)c(C(=O)O)cn1c23 [Levofloxacin, reference compound]",Bacterial MIC,P. aeruginosa PA01 (Si); Week 2 (12/14/2023),8 µg/mL
same,MIC,"P. aeruginosa PA01 (Si); Pseudomonas aeruginosa, Week 1 (12/6/2023), read-out: Bacterial MIC",8 µg/mL
same,MIC,"P. aeruginosa PA01; PA01, 20 h, P. aeruginosa PA01, CAMHB, 1 × 10⁵ CFU/mL, 0.25 to 128 μg/mL, 37 °C 20 h, duplicate, read visually (CLSI), read-out: MIC",8 µg/mL
same,MIC,"P. aeruginosa PA01; PAO1, P. aeruginosa 15692 (PAO1), Historical run 15NOV23, read-out: Bacterial MIC",0.5 µg/mL
same,MIC,"P. aeruginosa PA01; PAO1, P. aeruginosa 15692 (PAO1), Historical run 19APRIL23, read-out: Bacterial MIC",0.5 µg/mL
same,MIC,"P. aeruginosa PA01; PAO1, P. aeruginosa 15692 (PAO1), Historical run 22NOV23, read-out: Bacterial MIC",≤ 0.25 µg/mL
same,MIC,"P. aeruginosa PA01; PAO1, P. aeruginosa 15692 (PAO1), Week 2 (12/14/2023), read-out: Bacterial MIC",≤ 0.25 µg/mL
same,MIC,"E. faecium ATCC 49224; ATCC49224, 20 h, E. faecium 49224, CAMHB, 1 × 10⁵ CFU/mL, 0.25 to 128 μg/mL, 37 °C 20 h, duplicate, read visually (CLSI)",2 µg/mL
same,MIC,"E. faecium ATCC 49224; ATCC49224, read-out: Bacterial MIC, E. faecium 49224, Historical run 15NOV23",1 µg/mL
same,MIC,"E. faecium ATCC 49224; ATCC49224, read-out: Bacterial MIC, E. faecium 49224, Historical run 19APRIL23",2 µg/mL
same,MIC,"E. faecium ATCC 49224; ATCC49224, read-out: Bacterial MIC, E. faecium 49224, Historical run 22NOV23",1 µg/mL
same,MIC,"E. faecium ATCC 49224; ATCC49224, read-out: Bacterial MIC, E. faecium 49224, Week 1 (12/6/2023)",2 µg/mL
same,MIC,"E. faecium ATCC 49224; ATCC49224, read-out: Bacterial MIC, E. faecium 49224, Week 2 (12/14/2023)",2 µg/mL
same,MIC,"[1]; ATCC700603, 20 h, K. pneumoniae 700603, CAMHB, 1 × 10⁵ CFU/mL, 0.25 to 128 μg/mL, 37 °C 20 h, duplicate, read visually (CLSI)",0.5 µg/mL
same,MIC,"[1]; ATCC700603, read-out: Bacterial MIC, K. pneumoniae 700603, Historical run 15NOV23",0.5 µg/mL
same,MIC,"[1]; ATCC700603, read-out: Bacterial MIC, K. pneumoniae 700603, Historical run 19APRIL23",0.5 to 1 µg/mL
same,MIC,"[1]; ATCC700603, read-out: Bacterial MIC, K. pneumoniae 700603, Historical run 22NOV23",≤ 0.25 µg/mL
same,MIC,"[1]; ATCC700603, read-out: Bacterial MIC, K. pneumoniae 700603, Week 1 (12/6/2023)",0.5 µg/mL
same,MIC,"[1]; ATCC700603, read-out: Bacterial MIC, K. pneumoniae 700603, Week 2 (12/14/2023)",0.5 µg/mL
same,MIC,"P. aeruginosa ATCC 27853; ATCC27853, 20 h, P. aeruginosa 27853, CAMHB, 1 × 10⁵ CFU/mL, 0.25 to 128 μg/mL, 37 °C 20 h, duplicate, read visually (CLSI)",0.5 µg/mL
same,MIC,"P. aeruginosa ATCC 27853; ATCC27853, read-out: Bacterial MIC, P. aeruginosa 27853, Historical run 15NOV23",1 µg/mL
same,MIC,"P. aeruginosa ATCC 27853; ATCC27853, read-out: Bacterial MIC, P. aeruginosa 27853, Historical run 19APRIL23",1 µg/mL
same,MIC,"P. aeruginosa ATCC 27853; ATCC27853, read-out: Bacterial MIC, P. aeruginosa 27853, Historical run 22NOV23",0.5 µg/mL
same,MIC,"P. aeruginosa ATCC 27853; ATCC27853, read-out: Bacterial MIC, P. aeruginosa 27853, Week 1 (12/6/2023)",0.5 µg/mL
same,MIC,"P. aeruginosa ATCC 27853; ATCC27853, read-out: Bacterial MIC, P. aeruginosa 27853, Week 2 (12/14/2023)",0.5 µg/mL
same,MIC,"K. pneumoniae ATCC 13883; ATCC13883, 20 h, K. pneumoniae 13883, CAMHB, 1 × 10⁵ CFU/mL, 0.25 to 128 μg/mL, 37 °C 20 h, duplicate, read visually (CLSI)",0.25 µg/mL
same,MIC,"K. pneumoniae ATCC 13883; ATCC13883, read-out: Bacterial MIC, K. pneumoniae 13883, Historical run 15NOV23",≤ 0.25 µg/mL
same,MIC,"K. pneumoniae ATCC 13883; ATCC13883, read-out: Bacterial MIC, K. pneumoniae 13883, Historical run 19APRIL23",0.25 to 0.5 µg/mL
same,MIC,"K. pneumoniae ATCC 13883; ATCC13883, read-out: Bacterial MIC, K. pneumoniae 13883, Historical run 22NOV23",≤ 0.25 µg/mL
same,MIC,"K. pneumoniae ATCC 13883; ATCC13883, read-out: Bacterial MIC, K. pneumoniae 13883, Week 1 (12/6/2023)",≤ 0.25 µg/mL
same,MIC,"K. pneumoniae ATCC 13883; ATCC13883, read-out: Bacterial MIC, K. pneumoniae 13883, Week 2 (12/14/2023)",≤ 0.25 µg/mL
same,Bacterial MIC,S. aureus ATCC 25923; Historical run 15NOV23,<= 0.250 µg/mL
same,Bacterial MIC,S. aureus ATCC 25923; Historical run 19APRIL23,<= 0.250 µg/mL
same,Bacterial MIC,S. aureus ATCC 25923; Historical run 22NOV23,<= 0.250 µg/mL
same,Bacterial MIC,S. aureus ATCC 25923; Week 2 (12/14/2023),<= 0.250 µg/mL
same,MIC,"S. aureus ATCC 25923; ATCC25923, 20 h",0.25 µg/mL
same,MIC,"S. aureus ATCC 25923; ATCC25923, read-out: Bacterial MIC",≤ 0.25 µg/mL
same,Bacterial MIC,S. aureus ATCC 43300; Historical run 15NOV23,<= 0.250 µg/mL
same,Bacterial MIC,S. aureus ATCC 43300; Historical run 19APRIL23,<= 0.250 µg/mL
same,Bacterial MIC,S. aureus ATCC 43300; Historical run 22NOV23,<= 0.250 µg/mL
same,Bacterial MIC,S. aureus ATCC 43300; Week 2 (12/14/2023),<= 0.250 µg/mL
same,MIC,"S. aureus ATCC 43300; ATCC43300, 20 h",0.25 µg/mL
same,MIC,"S. aureus ATCC 43300; ATCC43300, read-out: Bacterial MIC",≤ 0.25 µg/mL
same,MIC,"P. aeruginosa MRSN 5519; MRSN5519, 20 h, P. aeruginosa 5519, CAMHB, 1 × 10⁵ CFU/mL, 0.25 to 128 μg/mL, 37 °C 20 h, duplicate, read visually (CLSI)",32 µg/mL
same,MIC,"P. aeruginosa MRSN 5519; MRSN5519, read-out: Bacterial MIC, P. aeruginosa 5519, Historical run 15NOV23",64 µg/mL
same,MIC,"P. aeruginosa MRSN 5519; MRSN5519, read-out: Bacterial MIC, P. aeruginosa 5519, Historical run 19APRIL23",64 µg/mL
same,MIC,"P. aeruginosa MRSN 5519; MRSN5519, read-out: Bacterial MIC, P. aeruginosa 5519, Historical run 22NOV23",32 µg/mL
same,MIC,"P. aeruginosa MRSN 5519; MRSN5519, read-out: Bacterial MIC, P. aeruginosa 5519, Week 1 (12/6/2023)",32 µg/mL
same,MIC,"P. aeruginosa MRSN 5519; MRSN5519, read-out: Bacterial MIC, P. aeruginosa 5519, Week 2 (12/14/2023)",32 µg/mL
same,MIC,"E. faecium ATCC 19434; ATCC19434, 20 h, E. faecium 19434, CAMHB, 1 × 10⁵ CFU/mL, 0.25 to 128 μg/mL, 37 °C 20 h, duplicate, read visually (CLSI)",4 µg/mL
same,MIC,"E. faecium ATCC 19434; ATCC19434, read-out: Bacterial MIC, E. faecium 19434, Historical run 15NOV23",4 µg/mL
same,MIC,"E. faecium ATCC 19434; ATCC19434, read-out: Bacterial MIC, E. faecium 19434, Historical run 19APRIL23",4 µg/mL
same,MIC,"E. faecium ATCC 19434; ATCC19434, read-out: Bacterial MIC, E. faecium 19434, Historical run 22NOV23",2 µg/mL
same,MIC,"E. faecium ATCC 19434; ATCC19434, read-out: Bacterial MIC, E. faecium 19434, Week 1 (12/6/2023)",4 µg/mL
same,MIC,"E. faecium ATCC 19434; ATCC19434, read-out: Bacterial MIC, E. faecium 19434, Week 2 (12/14/2023)",4 to 8 µg/mL
same,MIC,"A. baumannii ATCC 19606; ATCC19606, 20 h, A. baumannii 19606, CAMHB, 1 × 10⁵ CFU/mL, 0.25 to 128 μg/mL, 37 °C 20 h, duplicate, read visually (CLSI)",0.25 µg/mL
same,MIC,"A. baumannii ATCC 19606; ATCC19606, read-out: Bacterial MIC, A. baumannii 19606, Historical run 15NOV23",0.5 µg/mL
same,MIC,"A. baumannii ATCC 19606; ATCC19606, read-out: Bacterial MIC, A. baumannii 19606, Historical run 19APRIL23",0.5 µg/mL
same,MIC,"A. baumannii ATCC 19606; ATCC19606, read-out: Bacterial MIC, A. baumannii 19606, Historical run 22NOV23",≤ 0.25 µg/mL
same,MIC,"A. baumannii ATCC 19606; ATCC19606, read-out: Bacterial MIC, A. baumannii 19606, Week 1 (12/6/2023)",≤ 0.25 µg/mL
same,MIC,"A. baumannii ATCC 19606; ATCC19606, read-out: Bacterial MIC, A. baumannii 19606, Week 2 (12/14/2023)",≤ 0.25 µg/mL
same,Bacterial MIC,E. coli ATCC 35218; Historical run 15NOV23,<= 0.250 µg/mL
same,Bacterial MIC,E. coli ATCC 35218; Historical run 19APRIL23,<= 0.250 µg/mL
same,Bacterial MIC,E. coli ATCC 35218; Historical run 22NOV23,<= 0.250 µg/mL
same,Bacterial MIC,E. coli ATCC 35218; Week 2 (12/14/2023),<= 0.250 µg/mL
same,MIC,"E. coli ATCC 35218; ATCC35218, 20 h",0.25 µg/mL
same,MIC,"E. coli ATCC 35218; ATCC35218, read-out: Bacterial MIC",≤ 0.25 µg/mL

# From PMC12635268, “Novel antimicrobial peptides and peptide-microbiome crosstalk in Appalachian salamander skin” (NPJ Biofilms and Microbiomes, 2025)
